Source: publication PMC2774623 (Biochemistry, 2008)

Tests used:
[1] = system: CK2 holoenzyme; assay: Effect of CFTR peptides on substrate phosphorylation by CK2 holoenzyme; type: biochemical, human
[2] = system: CK2α catalytic subunit; assay: Effect of CFTR peptides on substrate phosphorylation by CK2α catalytic subunit; type: biochemical, human; details: below 400 μM, murine NBD1, Figure 3A
[3] = system: CK2α catalytic subunit; details: β interaction with CK2α; cited from earlier work

Substance: GTIKENIIGVSYDEYRYR [CFTR 500−518 ΔF508]
- inhibition of holoenzyme-mediated NBD1 phosphorylation ([1]; peptide concentration up to 800 μM, Figure 3B): no inhibition

Substance: GTIKENIIFGVSYDEYRYR [CFTR 500−518 wild type]
- stimulation of I-2 and HSP90 phosphorylation by CK2 holoenzyme ([1]; peptides 80 μM, I-2 2.5 μM, HSP90 0.5 μM, Figure 5A): no stimulation
- effect on NBD1 phosphorylation by CK2α at lower peptide concentrations [2]: slight stimulatory effect

Substance: Δ wt: CK2 β-subunit; its interaction values with CK2α were from ref 29
- ka (M^−1 s^−1) × 10^3 [3]: 22.7 M^−1 s^−1 × 10^3
- kd (s^−1) × 10^−3 [3]: 0.93 s^−1 × 10^−3
